Test results as given in patent EP0563345B1, “NOVEL 4-ARYLPIPERAZINES AND 4-ARYLPIPERIDINES” (MCNEILAB, INC., priority 1991, dated 1993).
Where a name gives a salt, the structure may show the parent alone. Read-outs that look alike come from different tables or passages of the source.

Columns and labels:
[1] = molecular target: T1, D-2 (dopamine-2) receptors (Rattus norvegicus, UniProt P61169); assay: biochemical; assay type: binding, male, Wistar rats; conditions: rat striatum P2 fraction, 3H-spiperone 0.05 nM; read-out: Receptor Binding (Ki nM) D2
T1 construct: The D2 assay employed a P2 fraction from the striatum, the ligand ^3H-spiperone at a concentration of 0.05 nM; from tissue; host or cells: rat striatum, P2 fraction (synaptosomal membranes), male Wistar rats
Method: The dopamine D2 binding activity of compounds was determined using a P2 fraction (synaptosomal membranes) prepared from male, Wistar rats.
The data from this assay were analyzed by calculating the percent inhibition of the binding of the tritiated ligands by given concentrations of the test compound. Kl values, where given, were obtained from the logit analysis of concentration-inhibition curves.

[2] = Overall statement on the antipsychotic screens (CAR test and D-2 affinity); conditions: as far as tested
Source text: (§1) The antipsychotic activity of the compounds of the invention may be determined by the Block of Conditioned Avoidance Responding (Rat) test (CAR), references being Cook, L. and E. Weidley in Ann.

[3] = Overall statement on the other non-antipsychotic screens; conditions: screens in which they have been tested to date
Source text: as §1

Male, Fischer 344 rats = assay: Block of Conditioned Avoidance Responding (Rat) test (CAR); conditions: for CAR 15 mg/kg IP Administration (% change CAR) / CAR 5 mg/kg IP Administration (% change CAR): negative number = blockade of CAR
Outline: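 Trained rats at 90% avoidance ran 60-trial sessions with a 15-sec light/tone conditioned stimulus, then a 0.7 mA shock. Vehicle was given on Day 1 and test compound on Day 2, with matched route and pretreatment time. The % change in CAR versus Day 1 and % escape failures are group means, with escape loss at 5 mg/kg unless noted.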

Male Charles-River rats = assay: Rat Glass Bead Test (propulsive motility of the distal colon); assay type: in vivo; conditions: mean expulsion time of glass bead
Method: The rat glass bead test is used to evaluate the action of compounds on propulsive motility of the distal colon. Male Charles-River rats weighing 50-90 grams are fasted for at least 18 hours in individual cages with water provided. Groups of rats are then dosed by the indicated route at the appropriate pretreatment time. A 4 mm glass bead is then inserted 3.5 cm into the distal colon through the anus using a 4 mm diameter glass rod. Rats are then placed in open top glass jars and observed for 60 minutes. The time for expulsion of the bead is noted for each rat. Rats not expelling the bead after 60 minutes are necropsied and the presence of the bead in the colon confirmed. […] Statistical analysis is done using one way analysis of variance and Fisher's LSD comparison. A probability of less than 0.05 is considered to be statistically significant.

[4] = system: spontaneously hypertensive rats (SHR model); assay: Spontaneously Hypertensive Rat Test (SHR); assay type: in vivo; conditions: 30 mg/kg p.o.
Method: Compounds #37 and 87 were also evaluated in the fully recovered, unanesthetized, unrestrained spontaneously hypertensive rats (SHR model) which is described hereinafter. They were deemed to be active because at doses of 30 mg/kg p.o. they caused a drop in the mean arterial pressure. For compound #37 the drop was 26 mm of mercury with an onset of 0.5 h and a duration of 3.5 h. For compound no. 87 the drop was 37 mm of mercury with an onset of 0.25 h and a duration of 5.75 h.
Adult male 350-450 g SHR [Tac:N(SHR)FBR], Taconic Farms, Germantown, New York are prepared for direct measurement of arterial pressure, housed in individual cages, and maintained on constant intraarterial infusion to assure catheter patency. Rats are permitted a 7-day postoperative recovery period to allow complete restoration of salt/water balance and body weight. Rats are assigned to vehicle or drug treatment groups (n=3/group). Drugs are uniformly suspended in 1% methylcellulose vehicle and given orally by gavage. Parameters are sampled continuously from the conscious, unrestrained rats and averaged every 15 min for the first 2 h and then hourly through 24 h after dosing. In order to take diurnal changes that are not drug related into account, 24 h timecourse curves for each parameter in drug treated SHR are compared to those from the concurrent control group. Since the average standard between-subject error is about 5 mm of mercury for arterial pressure parameters and about 11 bpm for heart rate, differences from concurrent control of greater than 10 mm of mercury and 22 bpm (2 SEM) are considered drug-related activity. Onset and duration are calculated from any pattern that achieves a maximum difference that meets these criteria.

[5] = system: male, Sprague-Dawley rats; assay: Catalepsy Test in Rats; conditions: 50 mg/kg IP
Method: The catalepsy test is taken to evaluate the liability of anti-psychotics to produce extra-pyramidal side effects.
The forepaws of male, Sprague-Dawley rats obtained from Charles River (170-240 g) were gently placed on a black cork (3.5 cm high) and the time until the forepaw was removed was recorded. Each rat was given three trials with a maximum time of 60 sec on the cork. The sum of the three trials was taken as the score for each rat. Percent catalepsy was defined as the percent of 180 sec (maximum time) that a rat permitted its forepaw to rest on the cork. […] In each test session, two control groups were used; animals treated with saline (or vehicle) served as a negative control and animals treated with haloperidol were a positive control.

[6] = system: apomorphine-induced emesis in the dog; assay: Block of Apomorphine-Induced Emesis In Dogs; assay type: in vivo; conditions: for ED50: Canis lupus familiaris, read-out: ED50 and 95% confidence limits, apomorphine HCl 1 mg/kg s.c.; for inhibition of apomorphine-induced emesis in the dog: in vivo
Method: This latter test is used in the preclinical evaluation of antipsychotics, and it also implies that the compounds could be used clinically for the treatment of emesis.
This procedure was modified from that described in Janssen, P. A. J.; Niemegeers, C. J. E.; Schellekens, K. Arzn.-Forch. […] The animals were treated with a test dose of apomorphine HCI to produce retching, and the effectiveness of a test compound in blocking that retching is determined. […] Following one of several pretreatments, a challenge dose of 1 mg/kg apomorphine HCl s.c. was given and the number of retches that occurred during the following 20 min period was recorded. At the start of the series, and after one week on testing, all dogs were pretreated with saline before the challenge dose of apomorphine HCI was administered. All of the saline-pretreated animals retched. […] Data were analyzed to determine the ED50 dose for blocking apomorphine HCI-induced emesis.

[7] = intravenous (IV) administration
[8] = oral administration, 1 h pretreatment
[9] = oral administration, 4 h pretreatment

T1 sequence (P61169 whole entry): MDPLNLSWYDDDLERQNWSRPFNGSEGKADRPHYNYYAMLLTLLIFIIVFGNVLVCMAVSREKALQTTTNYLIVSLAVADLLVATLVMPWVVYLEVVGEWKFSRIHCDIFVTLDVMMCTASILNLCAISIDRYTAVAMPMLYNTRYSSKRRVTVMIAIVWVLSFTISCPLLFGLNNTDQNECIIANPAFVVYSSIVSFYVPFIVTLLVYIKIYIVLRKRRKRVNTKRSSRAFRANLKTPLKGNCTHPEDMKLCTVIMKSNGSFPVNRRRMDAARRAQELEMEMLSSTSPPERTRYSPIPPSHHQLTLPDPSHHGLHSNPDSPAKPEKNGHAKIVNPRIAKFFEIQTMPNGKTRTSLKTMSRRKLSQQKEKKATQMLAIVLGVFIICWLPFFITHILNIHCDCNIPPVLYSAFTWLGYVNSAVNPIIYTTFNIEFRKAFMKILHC

Row | Ki [1] [nM] | (Escape Loss) % failures to escape (Male, Fischer 344 rats; at CAR 5 mg/kg IP) [%] | SMILES | potential antipsychotic activity in either of the screens [2] | CAR 5 mg/kg IP Administration (% change CAR) (Male, Fischer 344 rats) [%] | Catalepsy (%) ([5]; Pre-Reaction Time 60 min) | Glass bead expulsion time (Male Charles-River rats; IP, 1.0 mg/kg) [min] | other results
1 | > 1000 |  | CC1CN(Cc2cccc(C(=O)N3CCCCC3)c2)CCN1c1ccccc1 (stereo not shown) [Compound 8] | not exhibited potential antipsychotic activity |  |  |  | activity in any of the other non-antipsychotic screens [3]: not exhibited activity
2 | > 1000 |  | O=C(c1cccc(CN2CCN(c3ncccn3)CC2)c1)N1CCC[C@H]1CO [Compound 20] | not exhibited potential antipsychotic activity |  |  |  | CAR 15 mg/kg IP Administration (% change CAR) (Male, Fischer 344 rats): -17%; (Escape Loss) % failures to escape (Male, Fischer 344 rats; at CAR 15 mg/kg IP): 1%; activity in any of the other non-antipsychotic screens [3]: not exhibited activity
3 | > 1000 |  | CC(C)Oc1ccccc1N1CCN(Cc2cccc(C(=O)N3CCCCC3C(=O)O)c2)CC1 (stereo not shown) [Compound 24] | not exhibited potential antipsychotic activity |  |  |  | activity in any of the other non-antipsychotic screens [3]: not exhibited activity
4 | 703 |  | CC(O)COc1ccccc1N1CCN(Cc2cccc(C(=O)N3CCCCC3)c2)CC1 (stereo not shown) [Compound 27] | not exhibited potential antipsychotic activity |  |  |  | CAR 15 mg/kg IP Administration (% change CAR) (Male, Fischer 344 rats): -8%; (Escape Loss) % failures to escape (Male, Fischer 344 rats; at CAR 15 mg/kg IP): 0%
5 | > 1000 | 0 | O=C(c1cccc(CN2CCN(c3ccc4c(c3)OCO4)CC2)c1)N1CCCCC1 [Compound 36] | not exhibited potential antipsychotic activity | -10 |  |  | Glass bead expulsion time (Male Charles-River rats; PO, 10.0 mg/kg): 7.4 min
6 | > 1000 | 1 | O=C(c1cccc(CN2CCN(c3ncccn3)CC2)c1)N1CCCCC1 [Compound 37] | not exhibited potential antipsychotic activity | -18 |  |  | Glass bead expulsion time (Male Charles-River rats; PO, 10.0 mg/kg): 25 min; activity in the SHR model [4]: active; drop in the mean arterial pressure [4]: 26 mm of mercury; duration of the drop in mean arterial pressure [4]: 3.5 h; onset of the drop in mean arterial pressure [4]: 0.5 h
7 | 1.2 | 2 | CC(C)Oc1ccccc1C1CCN(Cc2cccc(C(=O)N3CCCCCC3)c2)CC1 [Compound 39] |  | -86 | 17.3 |  | 
8 | > 1000 |  | COc1ccc(OC)c(N2CCN(Cc3cccc(C(=O)N4CCCC4)c3)CC2)c1 [Compound 47] | not exhibited potential antipsychotic activity |  |  |  | CAR 15 mg/kg IP Administration (% change CAR) (Male, Fischer 344 rats): 2%; (Escape Loss) % failures to escape (Male, Fischer 344 rats; at CAR 15 mg/kg IP): 0%; activity in any of the other non-antipsychotic screens [3]: not exhibited activity
9 | > 1000 |  | COc1cccc(OC)c1N1CCN(Cc2cccc(C(=O)N3CCCCC3)c2)CC1 [Compound 48] | not exhibited potential antipsychotic activity |  |  | 14 | CAR 15 mg/kg IP Administration (% change CAR) (Male, Fischer 344 rats): -1%; (Escape Loss) % failures to escape (Male, Fischer 344 rats; at CAR 15 mg/kg IP): 1%; activity in any of the other non-antipsychotic screens [3]: not exhibited activity
10 |  |  | CC(C)Oc1ccccc1N1CCN(Cc2cccc(C(=O)N3CCCCC3)c2)CC1 [Compound 53, 1-[3-[[4-[2-(1-Methylethoxy)phenyl]-1-piperazinyl]methyl]benzoyl]piperidine Hydrochloride (3:2)] |  |  | 32.4 |  | CAR IP Administration (% change CAR) at 7.5 mg/kg (Male, Fischer 344 rats; 7.5 mg/kg IP): -91%; (Escape Loss) % failures to escape (Male, Fischer 344 rats; at CAR 7.5 mg/kg IP): 8%; ED50 [6, 7]: 0.03 mg/kg; ED50 [6, 8]: 0.038 mg/kg; ED50 [6, 9]: 0.263 mg/kg; inhibition of apomorphine-induced emesis in the dog [6]: particularly potent inhibitors; Catalepsy (%) ([5]; Pre-Reaction Time 240 min): 47.9%
11 |  | 5 | CC(C)Oc1ccccc1N1CCN(Cc2cccc(C(=O)N3CCCCCC3)c2)CC1.Cl [Compound 54, Hexahydro-1-[3-[[4-[2-(1-methylethoxy)phenyl]-1-piperazinyl]methyl]-benzoyl]-1H-azepine monohydrochloride] |  | -88 |  | 16 | ED50 [6, 7]: 0.019 mg/kg; ED50 [6, 8]: 0.047 mg/kg; ED50 [6, 9]: 0.251 mg/kg; inhibition of apomorphine-induced emesis in the dog [6]: particularly potent inhibitors
12 | 79 | 14 | CC(C)Oc1cc(F)ccc1N1CCN(Cc2cccc(C(=O)N3CCOCC3)c2)CC1 [Compound 80] |  | -91 | 84.8 | 14 | Catalepsy (%) ([5]; Pre-Reaction Time 240 min): 62.0%
13 | 29 | 42 | COc1ccccc1N1CCN(Cc2cccc(C(=O)N3CCCCC3)c2)CC1 [Compound 84] |  | -98 | 18.8 | 42 | Catalepsy (%) ([5]; Pre-Reaction Time 240 min): 33.9%
14 |  |  | O=C(c1cccc(CN2CCN(c3ccc(Cl)cc3)CC2)c1)N1CCCCC1 [Compound 87] | not exhibited potential antipsychotic activity |  |  | 28 | CAR 15 mg/kg IP Administration (% change CAR) (Male, Fischer 344 rats): -5%; (Escape Loss) % failures to escape (Male, Fischer 344 rats; at CAR 15 mg/kg IP): 0%; activity in the SHR model [4]: active; drop in the mean arterial pressure [4]: 37 mm of mercury; duration of the drop in mean arterial pressure [4]: 5.75 h; onset of the drop in mean arterial pressure [4]: 0.25 h
15 | 18 | 0 | O=C(c1cccc(CN2CCN(c3ccccc3Cl)CC2)c1)N1CCCCCC1 [Compound 93] |  | -23 | 20.0 | 25 | Catalepsy (%) ([5]; Pre-Reaction Time 240 min): 1.9%
16 |  |  | CC(C)Oc1ccccc1N1CCN(Cc2ccccc2C(=O)N2CCCCC2)CC1.Cl.Cl [Compound 111, 1-[2-[[4-[2-(1-Methylethoxy)phenyl]-1-piperazinyl]methyl]benzoyl]piperidine Dihydrochloride] |  |  | 52 | 11 | Catalepsy (%) ([5]; Pre-Reaction Time 240 min): 50.7%
17 |  |  | O=C(CCCN1CCC(O)(c2ccc(Cl)cc2)CC1)c1ccc(F)cc1 [Haloperidol, haloperidol, reference compound] |  |  |  |  | ED50 [6, 7]: 0.023 mg/kg; ED50 [6, 8]: 0.088 mg/kg; ED50 [6, 9]: 0.028 mg/kg
